Source: ChEMBL document CHEMBL3525988, “Delayed elimination of SN-38 in cancer patients with severe renal failure” (Drug Metab Dispos, 2011)

How the values were obtained:
[1] = Terminal elimination rate constant in cancer patient with severe renal failure administered as infusion after 0.25 to 1.5 hrs by RP-HPLC analysis; type: ADME, organism-based; design: dosed compound name Irinotecan; details: human, in vivo, iv; read-out: k_elim (converted)
[2] = Terminal elimination rate constant in cancer patient normal renal function administered as infusion after 0.25 to 1.5 hrs by RP-HPLC analysis; type: ADME, organism-based; design: dosed compound name Irinotecan; details: human, in vivo, iv; read-out: k_elim (converted)

## CCc1c2c(nc3ccc(O[C@@H]4O[C@H](C(=O)O)[C@@H](O)[C@H](O)[C@H]4O)cc13)-c1cc3c(c(=O)n1C2)COC(=O)[C@]3(O)CC
[1]
  k el: 8.61e-06 s⁻¹
[2]
  k el: 1.7e-05 s⁻¹

## CCc1c2c(nc3ccc(OC(=O)N4CCC(N5CCCCC5)CC4)cc13)-c1cc3c(c(=O)n1C2)COC(=O)[C@]3(O)CC [IRINOTECAN]
[1]
  k el: 2.81e-05 s⁻¹
[2]
  k el: 3.33e-05 s⁻¹

## CCc1c2c(nc3ccc(O)cc13)-c1cc3c(c(=O)n1C2)COC(=O)[C@]3(O)CC [7-ETHYL-10-HYDROXYCAMPTOTHECIN]
[1]
  k el: 2.34e-06 s⁻¹
[2]
  k el: 2.26e-05 s⁻¹
